Data published in US7563459B2, “Methods and compositions for regenerating tissue” (The United States of America as represented by the …, priority 2002, dated 2009).
“Also recorded” adds a separate entry of the source.

Columns and labels:
[1] = system: human CD34+ (hCD34+) peripheral blood stem cells; test: In vivo trafficking of 111In-labeled human CD34+ stem cells (HSC) after glycoprotein pretreatment, gamma camera imaging; parameters: species or system NOD-SCID mice
[2] = system: human mesenchymal stem cells (MSC); test: In vivo trafficking of 111In-labeled human mesenchymal stem cells (MSC) after glycoprotein pretreatment, gamma camera imaging; parameters: species or system NOD-SCID mice
Description: Human mesenchymal stem cells (hMSCs; PT-2501) obtained through an FDA-monitored, paid bone marrow donor program were purchased from Poietics Technologies, BioWhittaker (Walkerville, Md.). The cells were thawed according to manufacturer recommendations, resuspended, and radiolabelled in Mesenchymal Stem Cell Basal Medium (MSCBM).
^111Indium Oxine Labelling Procedure: ^111In-oxine labelling of adult human CD34+ or mesenchymal stem cells (hMSCs) was performed using a modification of the Amersham Healthcare Procedure for labelling autologous leukocytes.
Imaging procedures: Nuclear Medicine. NOD-SCID mice were anesthetized using rodent anesthesia cocktail. Once anesthetized, the mice were placed on a foam hemi-cylindrical mouse-positioning device (MPD,) and covered with a tube sock. The MPD allows better visual separation of the lungs and liver as compared to placing the mouse on a flat surface. The foam on which the mouse was placed, and the tube sock covering maintained a comfortable temperature permitting longer imaging without additional anesthesia. The MPD was placed on a narrow table between the dual heads of a Siemens E.Cam Gamma Camera and imaged statically or dynamically in 2-D or SPECT. ^57Co-Spot Marker is used to mark anatomic positions (nose, tail, cannula, etc.). The data was analyzed using a Siemens ICON system for regions of interest or percent of injected dose (e.g., liver, spleen, heart).
Gamma camera imaging using a Siemens E.Cam dual head gamma camera monitored the in vivo trafficking patterns of all human stem cells described in the following examples. Mice were placed on a Mouse Positioning Device (MPD) and placed between the detectors on the imaging platform.
MSC were obtained from BioWhittaker, (Poietics Division, cryopreserved PT-2501>750000 cells per ampoule) and labelled with ^111In as in previous examples, except that the MSC were labelled, washed, and injected in Basal Stem Cell Medium (Poietics) containing 5% human serum albumin (HSA). 0.56×10^6, ^111In-labelled, human mesenchymal stem cells (MSC) were administered via an implanted DaVinci Microport Vascular System cannula in the external jugular vein of a two-month old, female NOD-SCID mouse in 0.21 ml of basal stem cell medium containing 5% human serum albumin (HSA). Immediately prior to administration of MSC, 11.0 mg of orosomucoid was administered i.v. in 0.2 ml.
0.56×10^6, ^111In-labeled MSC were administered i.v. in 0.21 ml of basal stem cell medium containing 5% human serum albumin (HSA). […]

[3] = system: human CD34+ (hCD34+) peripheral blood stem cells; test: Microscopic examination of organs: immunohistochemical staining for human CD34 and in situ hybridization for human DNA after HSC infusion; assay type: in vivo, NOD-SCID mice
From the text: Harvesting for tissues for histopathology: Tissues were harvested after euthanasia. After the 1-hour image, the organs were harvested and half the organ was fixed in 10% neutral buffered formalin and the other half was frozen in OTC for frozen sections. The images presented herein are from fixed tissues.
Necropsy Procedure For Collection of Mouse Tissues: An initial midline skin incision from the anterior cervical region to the brim of the pubis was made followed by an abdominal incision following linea alba from the sternum to the pubis with a lateral reflection of the abdominal wall by incision following the caudal ribs. The sternum was reflected anteriorly by cutting the ribs at approximately the level of the costochrondral junction, incising the diaphragm and pericardium as needed. Anteriorly, reflection of sternum was extended to include the ventral cervical muscles to expose the trachea. The trachea and esophagus were incised at the mid cervical area and reflected caudally, cutting attachments as necessary to remove the thoracic viscera in toto. Following removal of the thoracic viscera, the entire heart was dissected free and immersed in 10% neutral buffered formalin. […]
Mice were imaged and the biodistribution of the radiolabelled hCD34+ cells monitored as described above. […]

[4] = system: human mesenchymal stem cells (MSC); test: In situ hybridization for human DNA in organs after MSC infusion; assay type: in vivo, NOD-SCID mice; conditions: 0.56×10^6 MSC preceded by 11 mg orosomucoid i.v.
From the text: Mice were imaged and the biodistribution of the radiolabelled MSCs cells monitored as described in Example 1. […] The positions of the cannula, diaphragm, heart, lungs, and liver were verified by CT scans (coronal sections).
The positions of the cannula, diaphragm, heart, lungs, and liver were verified by CT scans. In situ hybridization confirmed the gamma camera biodistribution data.

[5] = system: platelet aggregation induced by ADP and adrenaline; conditions: reported in the literature; cited from earlier work
[6] = cells infused into the jugular vein of immunodeficient mice, preceded by an infusion of the protein

Substance: Orosomucoid: alpha-(1)-acid glycoprotein, a normal constituent of human plasma; single polypeptide chain, approximately 45% carbohydrate including 12% sialic acid
- % infused cells in liver region ([1]; 0.5×10^6 HSC preceded by 11 mg orosomucoid i.v., 1 hr): 40±3%
- % infused cells in liver and spleen ([1]; 0.5×10^6 HSC preceded by 11 mg orosomucoid i.v., immediately after infusion): 43±2%
- 111In-labeled HSC in the region of the heart (imaging, words) ([1]; 5.75×10^6 HSC preceded by 5.5 mg orosomucoid i.v.): No ^111In-labeled cells were found in the region of the heart
- Organ in which hematopoietic stem cells localize (summary, words) [1, 6]: localize in the liver
- % Infused Cells In Heart ([2]; 0.56×10^6 MSC preceded by 11 mg orosomucoid i.v., 0 hr): 61.7-75.5%
- % Infused Cells In Heart ([2]; 0.56×10^6 MSC preceded by 11 mg orosomucoid i.v., 1 hr): 58-64%
- % Infused Cells In Heart ([2]; MSC/Orosomucoid, at 12 hr (Table 1)): 61 ± 3% at 12 hr
- Organ in which mesenchymal stem cells localize (summary, words) [2, 6]: predominantly localize in the heart
- Tissue location of hCD34+ cells (CD34 staining, in situ hybridization for human DNA) ([3]; 0.5×10^6 HSC preceded by 11 mg orosomucoid i.v., about 1 hour after infusion): Clusters of cells with stem cell morphology could be seen in the hepatic sinusoid; also recorded: not found in the heart muscle or interventricular septum but were present in the lung
- Migration of stem cells into tissue (summary, words) ([3]; hematopoietic stem cells after protein infusion): clusters of stem cells are found in the liver parenchyma
- Location of human cells by in situ hybridization [4]: human cells predominantly in the heart, but not the liver
- Amounts that inhibit platelet aggregation [5]: 5 to 15 mg/mL
